Literature values in paper PMC11923636, “Synthesis, Pharmacological Evaluation, and Molecular Modeling of Phthalimide Derivatives as Monoamine Oxidase and Cholinesterase Dual Inhibitors” (ACS Omega, 2025).

Tested on: MAO-B
Conditions: weak inhibition compared to the standard; ref number not given; cited from earlier work

Q: With N-benzylphthalimide [V] as the substance, how does the IC50 read?
A: The IC50 was 10.5 µM.
